Measured values taken from patent US6365573B1, “Regulation of neural enzymes” (Neuronz Ltd., priority 1996, dated 2002).

How the values were obtained:
Format in all cases: in vivo, rat
[1] = test system: Choline acetyltransferase (ChAT); assay: ChAT immunopositive striatal neuron count after hypoxic-ischemic injury; conditions: adult Wistar rats, 3 ug GPE centrally via guide cannula 2 hours after hypoxia, striatum counted 3 days after injury, vs vehicle; FIG. 1
Description: (§1) The objective of these studies was to determine the effects of administering GPE on expression of ChAT in the presence or absence of CNS injury. The experiment involved treating the rats with a control vehicle or GPE 2 hours after a focal CNS injury. […] The degree and length of hypoxia, the ambient temperature and humidity were defined to standardise the degree of damage. The neuronal death is restricted to the side of the carotid ligation and is primarily in the hippocarnpus, dentate gyrus, striatum and lateral cortex of the ligated hemisphere. There is no neuronal loss in the contralateral hemisphere.
Specifically, nine pairs of adult wistar rats (280-320g) were prepared under halothane/O2 anaesthesia. The right side carotid artery was ligated. A guide cannula was placed on the dura 7.5 mm anterior from stereotaxic zero and 1.5 mm from midline on the right. The rats were allowed to recover for 1 hour and were then placed in an incubator with humidity 90+/−5% and temperature 31+/−0.5° C. for 1 hour before hypoxia. Oxygen concentration was reduced and maintained at 6+/−0.202% for 10 minutes. […]
(§2) The size of the striatal region used for the count was measured using an image analyser. […] Data were analysed with paired t-test and presented as mean +/− sem.

[2] = test system: GAD; assay: GAD immunopositive striatal neuron count after hypoxic-ischemic injury; conditions: adult Wistar rats, 3 ug GPE 2 hours after hypoxia, striatum counted 3 days after injury, vs vehicle; *p<0.05; FIG. 2
Description: The objective of these studies was to determine the effects of administering GPE on expression of GAD in the presence or absence of CNS injury. The experiment involved treating the rats with a control vehicle or GPE 2 hours after a focal CNS injury. […] The degree and length of hypoxia, the ambient temperature and humidity were defined to standardise the degree of damage. The neuronal death is restricted to the side of the carotid ligation and is primarily in the hippocampus, dentate gyrus, striatum and lateral cortex of the ligated hemisphere. There is no neuronal loss in the contralateral hemisphere. Specifically, nine pairs of adult wistar rats (280-320 g) were prepared under halothane/O2 anaesthesia. The right side carotid artery was ligated. A guide cannula was placed on the dura 7.5 mm anterior from stereotaxic zero and 1.5 mm from midline on the right. The rats were allowed to recover for 1 hour and were then placed in an incubator with humidity 90+/-5% and temperature 31+/-0.5° C. for 1 hour before hypoxia. Oxygen concentration was reduced and maintained at 6+/-0.202% for 10 minutes. […] The size of the striatal region used for the count was measured using an image analyser. […] Data were analysed with paired t-test and presented as mean +/- sem.

[3] = test system: neuronal nitric oxide synthetase (NOS); assay: NOS immunopositive striatal neuron count after hypoxic-ischemic injury; conditions: adult Wistar rats, 3 ug GPE 2 hours after hypoxia, striatum counted 3 days after injury, vs vehicle; #p=0.072, *p=0.008; FIG. 3
Description: as §1, with “NOS” for “ChAT”, “hippocampus,” for “hippocarnpus,”
Specifically, nine pairs of adult wistar rats (280-320 g) were prepared under halothane/O2 anaesthesia. The right side carotid artery was ligated. A guide cannula was placed on the dura 7.5 mm anterior from stereotaxic zero and 1.5 mm from midline on the right. The rats were allowed to recover for 1 hour and were then placed in an incubator with humidity 90+/−5% and temperature 31+/−0.5° C. for 1 hour before hypoxia. Oxygen concentration was reduced and maintained at 6+/−0.202% for 10 minutes. […]
as §2

[4] = test system: GAD; assay: GAD immunoreactivity in striatum after quinolinic acid induced injury; conditions: adult male Wistar rats, 3 μg GPE into right lateral ventricle 2 hours after quinolinic acid, 3 days, vs vehicle; no statistics; FIG. 4
Excerpt: (§3) The objective of this study was to determine the effect of GPE administration on the expression of GAD, NOS and ChAT in the presence or absence of injury to the striatum induced by quinolinic acid. When injected into the striatum in experimental animals quinolinic acid produces lesions arising from the loss of striatopallidal and striatonigral GABAergic projection neurons, but spares the axons in the striatum (Science, 219, 316-318 [1983]). Rats were either treated with a control vehicle or GPE 2 hours after administration of quinolinic acid.
(§4) A total of 14 adult male Wistar rats (280-310 g) were used in this investigation. Eight rats were anaesthetized using halothane/O2 anaesthesia. An injection of quinolinic acid ([…], Sigma, dissolved in 4M NaOH) was stereotaxically placed in the dorsal region of the right striatum 0.8 mm anterior to bregma, 2.5 mm lateral to the midline and 4.0 mm ventral to the pial surface. […]
(§5) The size of the striatal region used for the count was measured using an image analyser (Mocha image analysis software). […] The data has not been analysed for statistical signigicance. Tissue from one of the GPE treated animals was unable to be counted.

[5] = test system: NOS; assay: NOS immunoreactivity in striatum after quinolinic acid induced injury; conditions: adult male Wistar rats, 3 days, FIG. 5
Excerpt: as §3, §4, §5

[6] = test system: ChAT; assay: ChAT immunoreactivity in striatum after quinolinic acid induced injury; conditions: adult male Wistar rats, 3 μg GPE into right lateral ventricle 2 hours after quinolinic acid, 3 days; no statistics; FIG. 6
Excerpt: as §3, §4, §5

Gly-Pro-Glu [GPE]
number of ChAT immunopositive neurons [1]: increased in both the right and left (uninjured) sides
number of GAD immunopositive neurons [2]: increased in the right side
number of NOS immunopositive neurons [3]: increased in both the right and left (uninjured) sides
GAD expression (GAD-positive striatal neurons) [4]: upregulation of GAD expression on both sides of the brain
NOS enzyme levels relative to normal, left (non-injured) side ([5]; 3 μg GPE 2 hours after quinolinic acid, compared with normal controls): restoring the enzyme levels to normal
NOS enzyme expression (NOS-positive striatal neurons) ([5]; 3 μg GPE into right lateral ventricle 2 hours after quinolinic acid, vs vehicle, no statistics): upregulation of enzyme expression on both sides of the brain
levels of ChAT (ChAT-positive striatal neurons) [6]: upregulated the levels of ChAT to above normal on the right (injured) side of the brain
